Measured values: ChEMBL document CHEMBL2434832, “Structure-based identification of novel PPAR gamma ligands” (Bioorg Med Chem Lett, 2013)

Tests used:
[1] = Solubility of the compound in DMSO; format: physicochemical
[2] = biological target: T1, Peroxisome proliferator-activated receptor gamma (Homo sapiens) (UniProt P37231); experiment: Binding affinity to human PPARgamma LBD expressed in Escherichia coli BL21 DE3 assessed as melting temperature at 33 uM after 2 hrs using SYPRO orange dye
T1 sequence (whole entry): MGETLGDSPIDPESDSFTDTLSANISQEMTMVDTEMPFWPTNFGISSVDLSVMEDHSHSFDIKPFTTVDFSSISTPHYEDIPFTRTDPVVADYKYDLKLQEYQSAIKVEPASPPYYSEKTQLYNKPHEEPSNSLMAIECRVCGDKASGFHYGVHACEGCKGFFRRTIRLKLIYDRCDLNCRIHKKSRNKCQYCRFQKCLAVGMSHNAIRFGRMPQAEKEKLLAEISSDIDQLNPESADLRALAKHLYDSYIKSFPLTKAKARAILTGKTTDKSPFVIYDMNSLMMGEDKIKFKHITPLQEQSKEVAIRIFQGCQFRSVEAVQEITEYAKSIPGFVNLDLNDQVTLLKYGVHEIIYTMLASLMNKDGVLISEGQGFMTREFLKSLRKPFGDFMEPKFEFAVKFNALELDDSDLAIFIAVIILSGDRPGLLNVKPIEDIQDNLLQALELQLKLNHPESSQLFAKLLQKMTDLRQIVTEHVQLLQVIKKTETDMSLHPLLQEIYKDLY

[3] = biological target: T2, Peroxisome proliferator-activated receptor gamma (Homo sapiens, UniProt P37231); experiment: Displacement of fluormone from human PPARgamma LBD expressed in Escherichia coli BL21 DE3 by fluorescence polarization assay
T2 sequence (P37231 whole entry): T1 sequence (whole entry)

SMILES | solubility [1] | Tm [2] [°C] | IC50 [3] [nM]
O=C(O)c1ccc(COc2ccccc2C=C2C(=O)c3ccccc3C2=O)cc1 | soluble | 53 | 1140
CN1CCN(S(=O)(=O)c2ccc(SCC(=O)O)nc2)CC1 | Insoluble |  | 
O=C(Nc1ccc(C(=O)O)cc1)/C(=C\c1ccc2c(c1)OCO2)NC(=O)c1ccc(Br)o1 | soluble | 46 | 
O=C(O)Cn1c(SCCOc2ccc3ccccc3c2)nc2ccccc21 | soluble | 46 | 2220
Cc1ccc(S(=O)(=O)Cc2noc(CCC(=O)O)n2)cc1 | soluble | 46 | 
CN(CCOc1ccc(CC2SC(=O)NC2=O)cc1)c1ccccn1 (configuration not stated) |  | 49 | 
O=C(O)Cn1ccc2cc(OCc3ccccc3)ccc21 | soluble | 46 | 
CCOc1cc(/C=C2/SC(Nc3cccc(C(=O)O)c3)=NC2=O)ccc1OC | Insoluble |  | 
O=C(CN1C(=O)c2ccccc2C1=O)NCc1ccc(C(=O)O)cc1 | soluble | 46 | 
O=C(O)c1ccc(-n2nnnc2SCc2ccccc2Br)cc1 | soluble | 46 | 5130
Cc1ccccc1Nc1nc(N)nc(CSc2nc3ccccc3c(=O)[nH]2)n1 | soluble | 46 | 
COc1cccc(/C=C2\SC(=S)N(CCCC(=O)N3CCC(C(=O)O)CC3)C2=O)c1 | soluble | 49 | 
Cc1c(/C=C2\SC(Nc3cccc(C(=O)O)c3)=NC2=O)c2ccccc2n1C | soluble | 46 | 
CSc1ccccc1-n1nnnc1SCC(=O)O | soluble | 46 | 
Cc1ccc(Cn2c(=N)n(CC(=O)O)c3ccccc32)cc1 | soluble | 46 | 
C[C@@H](Oc1ccc(/C=C2/C(=O)N=C(O)N(c3cccc(Br)c3)C2=O)cc1)C(=O)O | soluble | 46 | 
